# Laboratory results as given in patent US10994015B2, “EGFR proteolysis targeting chimeric molecules and associated methods of use” (Arvinas Operations, Inc., priority 2016, dated 2021).
# What was measured:
# [1] = target: EGFR L858R/T790M/C797S triple mutant (H520*) (Homo sapiens (Human), UniProt P00533, C797S/L858R/T790M); assay: EGFR protein degradation assay (Western blot); type: cell-based; settings: 72 hours, 300 nM to 10 nM
# Experimental: (§1) EGFR Protein Degradation assay
# Cells were incubated overnight at 37° C., 5% CO2 prior to compound addition. A 10 mM compound stock in DMSO was serially diluted in DMSO to provide the following stock concentrations: 1, 0.3, 0.1, 0.03 and 0.01 mM. An appropriate volume of each compound dilution, together with a DMSO vehicle control, was added to media to provide a 2× compound solution. […] At the end of the compound treatment, cells were washed once with ice-cold phosphate-buffered saline (PBS) and treated with lysis solution (1× lysis buffer, Cell Signaling Technologies (CST #9803) supplemented with Piarce™ protease inhibitors, #A32953, Thermo Fisher Scientific, TFS). Lysates were collected and clarified of cell debris by spinning at 10K rpm for 10 minutes. A specific volume of supernatant was retrieved for protein quantification (Pierce™ BCA kit, TFS #23225) and for Western analysis. Loading buffer supplemented with EDTA and reducing agent was added to each supernatant. A specific volume of supernatant (determined by protein assay: […] loaded per sample) was loaded into a NuPAGE™ 4-12% Bis-Tris gel (TFS). Samples were run at 165V in MOPS running buffer for 2 hours and then transferred to PVDF blotting membrane using a dry blotting system (iBlot2, TFS). Membranes were blocked in Tris-buffered saline supplemented with Tween, 0.1% (TBST) containing 5% non-fat dry milk, (AmericanBio). Following block, membranes were washed once with TBST. […] Membranes were washed 3× with TBST prior to addition of secondary antibody (1:10 000, anti-rabbit HRP-linked, CST #7074) in TBST with 3% BSA and then incubated at room temperature for one hour. Membranes were then washed 3× with TBS and signal developed by exposure to developer (SuperSignal West Femto, TFS) for 5 minutes. Membranes were then immediately imaged using a BioRad Chemidoc.
# EGFR L858R/T790M/C797S = EGFR L858R/T790M/C797S (Homo sapiens (Human), UniProt P00533, C797S/L858R/T790M); assay: TR-FRET assay for ERBB kinases; type: biochemical; settings: geometric mean if measured more than once
# Experimental: (§2) TR-FRET Assay for ERBB Kinases
# (§3) All compounds and PROTACs were serially diluted in three-fold increments using 100% DMSO, followed by an intermediate 10-fold dilution using Buffer A (50 mM HEPES, pH 7.5, 50 mM NaCl, 10 mM MgCl2, 1 mM DTT, and 0.1% Pluronic F-68). […] Next, 10 uL of protein kinase in Buffer A was added to each well of the assay plate and pre-incubated with compound for 10 minutes. Kinase reactions were then initiated by addition of 5 uL substrate mix containing 3 mM ATP and 30 uM fluorescein-labeled Poly-GluTyr (Thermo Fisher, #PV3610) in Buffer A and allowed to proceed for 10 minutes at room temperature. Reactions were quenched by addition of a 5 uL mixture containing 5 nM LanthaScreen® Tb-pY20 Antibody (Thermo Fisher, #PV3552) and 40 mM EDTA in Buffer A. Assay plates were then read using a Synergy2 (Biotek Instruments, Winooski, Vt.) via excitation thru a 340/20 nm bandpass filter and emission collected thru 490/10 nm (donor) and 520/25 nm (acceptor) bandpass filters.
# EGFR WT = EGFR WT (Homo sapiens (Human), UniProt P00533); assay: TR-FRET assay for ERBB kinases; type: biochemical; settings: geometric mean if measured more than once
# Experimental: as §2, §3
# EGFR L858R/T790M = EGFR L858R/T790M (Homo sapiens (Human), UniProt P00533, L858R/T790M); assay: TR-FRET assay for ERBB kinases; type: biochemical; settings: geometric mean if measured more than once
# Experimental: as §2, §3
# EGFR Exon20NPG = EGFR Exon20NPG (Homo sapiens (Human), UniProt P00533, INS770NPG); assay: TR-FRET assay for ERBB kinases; type: biochemical; settings: geometric mean if measured more than once
# Experimental: as §2
# All compounds and PROTACs were serially diluted in three-fold increments using 100% DMSO, followed by an intermediate 10-fold dilution using Buffer A (50 mM HEPES, pH 7.5, 50 mM NaCl, 10 mM MgCl2, 1 mM DTT, and 0.1% Pluronic F-68). Two microliters of serially diluted compound or PROTAC were then transferred to black 384-well Proxiplates (PerkinElmer, #6008260) using an Integra Viaflo96. Next, 10 uL of protein kinase in Buffer A was added to each well of the assay plate and pre-incubated with compound for 10 minutes. Kinase reactions were then initiated by addition of 5 uL substrate mix containing 3 mM ATP and 30 uM fluorescein-labeled Poly-GluTyr (Thermo Fisher, #PV3610) in Buffer A and allowed to proceed for 10 minutes at room temperature. Reactions were quenched by addition of a 5 uL mixture containing 5 nM LanthaScreen® Tb-pY20 Antibody (Thermo Fisher, #PV3552) and 40 mM EDTA in Buffer A. Assay plates were then read using a Synergy2 (Biotek Instruments, Winooski, Vt.) via excitation thru a 340/20 nm bandpass filter and emission collected thru 490/10 nm (donor) and 520/25 nm (acceptor) bandpass filters.
# [2] = target: EGFR L858R/T790M double mutant (H1975) (Homo sapiens (Human), UniProt P00533, L858R/T790M); assay: EGFR protein degradation assay (Western blot); type: cell-based; settings: 72 hours, 300 nM to 10 nM
# Experimental: as §1
# Cells expressing the appropriate form of EGFR were seeded in 6-well plates (300,000 cells per well) and allowed to adhere to the plate overnight. […] To harvest cells, media was removed and cells were washed once with ice-cold phosphate-buffered saline (PBS) prior to the addition of 400 μl lysis buffer (Cell Signaling Technology) supplemented with a protease inhibitor cocktail (Thermo Scientific). Cells were scraped from the plate and the cell lysate transferred to an Eppendorf tube and then clarified by a single spin at 10 000 rpm for 10 minutes. The protein concentration of each lysate was determined (BCA kit, Thermo Scientific) prior to the addition of loading buffer (Invitrogen) and reducing agent (Invitrogen). 10 μg protein of each lysate was loaded on an SDS/PAGE gel and run at 165V for 2 hours. Following transfer to a PVDF membrane (iBlot2, Thermo Fisher Scientific), the membrane was blocked in Tris-buffered saline containing 0.1% Tween-20 (TBS-T) and supplemented with 5% powdered milk for 1 hour. Membranes were then probed with EGFR and tubulin (loaded control) primary antibodies in TBS-T containing 3% bovine serum albumin (BSA) overnight at 4° C. Membranes were washed thrice with TBS-T before incubation with secondary antibody in TBS-T containing 3% bovine serum albumin (BSA) and incubated for 1 hour at room temperature. Following 3 further washes with TBS, membrane proteins of interest were detected by enzyme-linked chemiluminescence (ECL) using a Chemidoc (Bio-Rad).
# Sequence of EGFR WT (P00533 25-1210): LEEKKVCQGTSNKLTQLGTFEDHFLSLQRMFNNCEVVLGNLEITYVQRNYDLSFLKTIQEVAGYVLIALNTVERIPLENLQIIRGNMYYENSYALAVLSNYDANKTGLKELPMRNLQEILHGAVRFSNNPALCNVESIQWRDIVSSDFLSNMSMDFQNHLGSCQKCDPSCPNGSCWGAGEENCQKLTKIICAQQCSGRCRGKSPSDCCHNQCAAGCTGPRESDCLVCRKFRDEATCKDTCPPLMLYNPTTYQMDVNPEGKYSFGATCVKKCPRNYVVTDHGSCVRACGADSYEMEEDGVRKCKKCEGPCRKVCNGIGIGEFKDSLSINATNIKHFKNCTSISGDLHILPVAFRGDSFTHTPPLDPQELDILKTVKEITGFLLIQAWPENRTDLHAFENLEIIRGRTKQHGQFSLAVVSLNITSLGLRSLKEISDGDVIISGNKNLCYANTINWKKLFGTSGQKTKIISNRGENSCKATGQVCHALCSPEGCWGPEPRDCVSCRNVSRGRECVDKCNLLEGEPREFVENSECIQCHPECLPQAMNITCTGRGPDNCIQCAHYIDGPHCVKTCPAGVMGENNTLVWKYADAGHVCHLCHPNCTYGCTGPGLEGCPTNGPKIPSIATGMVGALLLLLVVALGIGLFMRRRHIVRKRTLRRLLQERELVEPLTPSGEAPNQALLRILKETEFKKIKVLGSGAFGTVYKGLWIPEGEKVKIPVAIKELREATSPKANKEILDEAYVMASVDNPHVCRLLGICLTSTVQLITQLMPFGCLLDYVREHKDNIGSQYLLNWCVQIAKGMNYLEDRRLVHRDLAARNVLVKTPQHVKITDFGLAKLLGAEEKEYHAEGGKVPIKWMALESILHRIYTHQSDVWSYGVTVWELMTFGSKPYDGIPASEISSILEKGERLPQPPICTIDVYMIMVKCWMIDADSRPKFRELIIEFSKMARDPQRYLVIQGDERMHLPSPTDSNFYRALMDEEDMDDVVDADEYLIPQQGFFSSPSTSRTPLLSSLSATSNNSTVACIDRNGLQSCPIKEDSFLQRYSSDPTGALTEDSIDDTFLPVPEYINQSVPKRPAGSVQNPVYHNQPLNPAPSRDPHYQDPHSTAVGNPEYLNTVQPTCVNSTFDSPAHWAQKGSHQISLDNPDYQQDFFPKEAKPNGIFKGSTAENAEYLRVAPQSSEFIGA
# Sequence of EGFR L858R/T790M/C797S (P00533 25-1210 T790M/C797S/L858R): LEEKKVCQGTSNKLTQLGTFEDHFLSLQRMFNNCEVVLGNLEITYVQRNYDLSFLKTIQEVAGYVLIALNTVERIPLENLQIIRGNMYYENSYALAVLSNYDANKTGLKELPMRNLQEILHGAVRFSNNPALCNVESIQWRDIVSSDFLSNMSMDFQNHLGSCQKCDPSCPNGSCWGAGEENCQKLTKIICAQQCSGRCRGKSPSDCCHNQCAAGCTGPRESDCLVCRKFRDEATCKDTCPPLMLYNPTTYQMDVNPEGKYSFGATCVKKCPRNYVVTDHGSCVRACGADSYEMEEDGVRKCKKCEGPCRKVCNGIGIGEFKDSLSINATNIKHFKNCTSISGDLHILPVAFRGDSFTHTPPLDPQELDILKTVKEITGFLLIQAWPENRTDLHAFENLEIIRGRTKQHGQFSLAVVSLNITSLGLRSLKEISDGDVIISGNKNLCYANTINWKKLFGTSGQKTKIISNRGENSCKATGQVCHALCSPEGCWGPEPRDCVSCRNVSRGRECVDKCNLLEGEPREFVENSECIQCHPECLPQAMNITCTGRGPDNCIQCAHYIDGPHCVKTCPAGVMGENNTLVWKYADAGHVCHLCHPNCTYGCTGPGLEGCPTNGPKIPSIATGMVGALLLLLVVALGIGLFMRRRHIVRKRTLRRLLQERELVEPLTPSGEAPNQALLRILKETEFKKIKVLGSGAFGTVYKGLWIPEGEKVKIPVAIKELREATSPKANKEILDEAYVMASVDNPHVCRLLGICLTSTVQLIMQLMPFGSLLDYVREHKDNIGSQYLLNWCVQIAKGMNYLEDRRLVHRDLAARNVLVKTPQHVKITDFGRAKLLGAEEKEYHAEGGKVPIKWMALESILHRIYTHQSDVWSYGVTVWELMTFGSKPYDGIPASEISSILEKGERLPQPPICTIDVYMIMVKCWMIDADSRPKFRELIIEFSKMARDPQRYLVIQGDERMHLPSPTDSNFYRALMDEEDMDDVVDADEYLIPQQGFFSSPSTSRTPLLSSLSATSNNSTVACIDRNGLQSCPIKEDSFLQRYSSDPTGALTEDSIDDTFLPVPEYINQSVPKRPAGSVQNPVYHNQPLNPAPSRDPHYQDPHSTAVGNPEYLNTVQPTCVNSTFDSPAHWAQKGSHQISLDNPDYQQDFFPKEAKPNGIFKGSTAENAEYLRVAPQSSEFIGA
# Sequence of EGFR L858R/T790M/C797S triple mutant (H520*) (P00533 25-1210 T790M/C797S/L858R): as above
# Sequence of EGFR Exon20NPG (P00533 other isoform, or with tags, fused parts or gaps del 1-694/ins NPG behind 770 limits assumed): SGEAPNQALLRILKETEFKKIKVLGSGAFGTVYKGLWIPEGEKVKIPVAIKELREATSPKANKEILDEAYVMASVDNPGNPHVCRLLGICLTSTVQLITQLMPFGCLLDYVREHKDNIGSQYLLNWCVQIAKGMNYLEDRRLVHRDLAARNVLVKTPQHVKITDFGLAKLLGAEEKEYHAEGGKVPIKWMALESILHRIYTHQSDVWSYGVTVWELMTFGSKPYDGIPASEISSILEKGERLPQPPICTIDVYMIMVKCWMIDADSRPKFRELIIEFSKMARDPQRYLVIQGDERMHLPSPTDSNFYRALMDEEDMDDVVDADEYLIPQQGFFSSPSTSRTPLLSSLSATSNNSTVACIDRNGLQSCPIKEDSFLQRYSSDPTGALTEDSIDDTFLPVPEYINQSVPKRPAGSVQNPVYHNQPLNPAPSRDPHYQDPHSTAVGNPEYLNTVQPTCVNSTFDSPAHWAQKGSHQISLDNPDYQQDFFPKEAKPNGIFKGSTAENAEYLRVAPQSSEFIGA
SMILES,"EGFR protein remaining, EGFR L858R/T790M/C797S triple mutant [1]",IC50 (EGFR L858R/T790M/C797S) [µM],IC50 (EGFR WT) [µM],IC50 (EGFR L858R/T790M) [µM],IC50 (EGFR Exon20NPG) [µM],"EGFR protein remaining, EGFR L858R/T790M double mutant [2]"
COC1CCN(c2nccc(Nc3cc4c(cn3)nc(COCCN3CCN(c5ccc(OCCCOCC(=O)N[C@H](C(=O)N6C[C@H](O)C[C@H]6C(=O)NCc6ccc(-c7scnc7C)cc6)C(C)(C)C)cc5)CC3)n4C(C)C)n2)CC1 [compound 303],A (≤50% EGFR protein remaining after 72 hours of incubation with the test compound at a concentration between 300 nM and 10 nM),0.25,> 30,0.55,–,–
O=C1CCC(N2C(=O)c3ccc(N4CCN(CCCOCCCCNc5cccc6c5C(=O)N(C(C(=O)Nc5nccs5)c5cc(F)ccc5O)C6)CC4)cc3C2=O)C(=O)N1 (centres unmarked) [compound 289],C (>80% EGFR protein remaining after 72 hours of incubation with the test compound at a concentration of 300 nM),0.19,1.2,1.7,–,–
O=C1CCC(N2C(=O)c3cccc(NCCOCCOCCOCCOCCOCCOCC#Cc4cccc5c4C(=O)N(C(C(=O)Nc4nccs4)c4cc(F)ccc4O)C5)c3C2=O)C(=O)N1 (centres unmarked) [compound 295],C (>80% EGFR protein remaining after 72 hours of incubation with the test compound at a concentration of 300 nM),0.71,34,3.1,–,–
CC(C)n1c(COCCN2CCN(c3ccc(OCCCN4CCN(c5ccc6c(c5)C(=O)N(C5CCC(=O)NC5=O)C6=O)CC4)cc3)CC2)nc2cnc(Nc3ccnc(-c4cnn(S(=O)(=O)C5CC5)c4)n3)cc21 (centres unmarked) [compound 305],C (>80% EGFR protein remaining after 72 hours of incubation with the test compound at a concentration of 300 nM),0.0013,2.1,0.0098,–,–
O=C1CCC(N2C(=O)c3ccc(N4CCC(CN5CCC(OCC#Cc6cccc7c6C(=O)N(C(C(=O)Nc6nccs6)c6cc(F)ccc6O)C7)CC5)CC4)cc3C2=O)C(=O)N1 (centres unmarked) [compound 290],B (≤80% and >50% EGFR protein remaining after 72 hours of incubation with the test compound at a concentration between 300 nM and 10 nM),0.14,1.1,2.7,–,–
"COC1CCN(c2nccc(Nc3cc4c(cn3)nc(COCCN3CCN(c5ccc(O[C@H]6C[C@H](OCC(=O)N[C@H](C(=O)N7C[C@H](O)C[C@H]7C(=O)NCc7ccc(-c8scnc8C)cc7)C(C)(C)C)C6)cc5)CC3)n4C(C)C)n2)CC1 [Example 302, (2S,4R)-4-hydroxy-1-((S)-2-(2-((1r,3s)-3-(4-(4-(2-((1-isopropyl-6-((2-(4-methoxypiperidin-1-yl)pyrimidin-4-yl)amino)-1H-imidazo[4,5-c]pyridin-2-yl)methoxy)ethyl)piperazin-1-yl)phenoxy)cyclobutoxy)acetamido)-3,3-dimethylbutanoyl)-N-(4-(4-methylthiazol-5-yl)benzyl)pyrrolidine-2-carboxamide]",A (≤50% EGFR protein remaining after 72 hours of incubation with the test compound at a concentration between 300 nM and 10 nM),0.32,> 30,0.67,–,–
O=C1CCC(N2C(=O)c3cccc(NCCOCCOCCOCCOCCOCCOCCCc4cccc5c4C(=O)N(C(C(=O)Nc4nccs4)c4cc(F)ccc4O)C5)c3C2=O)C(=O)N1 (centres unmarked) [compound 300],C (>80% EGFR protein remaining after 72 hours of incubation with the test compound at a concentration of 300 nM),3.1,2.7,20,–,–
COC1CCN(c2nccc(Nc3cc4c(cn3)nc(COCCN3CCN(CCOCC(=O)N[C@H](C(=O)N5C[C@H](O)C[C@H]5C(=O)N[C@@H](C)c5ccc(-c6scnc6C)cc5)C(C)(C)C)CC3)n4C(C)C)n2)CC1 [compound 86],–,2.4,> 30,12,24,C (>80% EGFR protein remaining after 72 hours of incubation with the test compound at a concentration of 300 nM)
O=C1CCC(N2C(=O)c3cccc(NCCOCCOCC#Cc4cccc5c4C(=O)N([C@@H](C(=O)Nc4nccs4)c4cc(F)ccc4O)C5)c3C2=O)C(=O)N1 (some centres unmarked) [compound 264],–,1.1,4.2,> 30,24,C (>80% EGFR protein remaining after 72 hours of incubation with the test compound at a concentration of 300 nM)
COC1CCN(c2nccc(Nc3cc4c(cn3)nc(COCCOCCN3CCN(CCOc5ccc6c(c5)C(=O)N(C5CCC(=O)NC5=O)C6=O)CC3)n4C(C)C)n2)CC1 (centres unmarked) [compound 88],–,9.4,> 30,11,3.1,C (>80% EGFR protein remaining after 72 hours of incubation with the test compound at a concentration of 300 nM)
O=C1CCC(N2C(=O)c3ccc(OCCOCCOCCOCCOCCOCC#Cc4cccc5c4C(=O)N([C@@H](C(=O)Nc4nccs4)c4cc(F)ccc4O)C5)cc3C2=O)C(=O)N1 (some centres unmarked) [compound 263],–,0.79,8.6,11,12,C (>80% EGFR protein remaining after 72 hours of incubation with the test compound at a concentration of 300 nM)
Cc1ncsc1-c1ccc([C@H](C)NC(=O)[C@H]2C[C@H](O)CN2C(=O)[C@@H](NC(=O)COCCN2CCN(CCCC#Cc3cccc4c3C(=O)N(C(C(=O)Nc3nccs3)c3cc(F)ccc3O)C4)CC2)C(C)(C)C)cc1 (some centres unmarked) [compound 91],–,0.66,4.3,4.7,8.3,C (>80% EGFR protein remaining after 72 hours of incubation with the test compound at a concentration of 300 nM)
